Source: ChEMBL document CHEMBL1201862, “PubChem BioAssay data set” (2004)
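Cultured in 96-well plates, cells were exposed to test compound for 48 hours across five concentrations. GI50 marks 50% less growth.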 Activity calls are given as the source filed them. Cut-off read from the data, not from the text of the source: active = GI50 up to about 1.1 µM and inactive = higher.

Legend:
Assay in all cases: DTP human tumour cell line panel, 48 h
HCT-15 = test system: HCT-15
Hs-578T = test system: Hs-578T
UO-31 = test system: UO-31
T47D = test system: T47D
SF-295 = test system: SF-295
SNB-19 = test system: SNB-19
HT-29 = test system: HT-29
MDA-N = test system: MDA-N
LOX IMVI = test system: LOX IMVI
NCI-H23 = test system: NCI-H23
UACC-62 = test system: UACC-62
SR = test system: SR
MOLT-4 = test system: MOLT-4
OVCAR-3 = test system: OVCAR-3
UACC-257 = test system: UACC-257
MDA-MB-231 = test system: MDA-MB-231
HCT-116 = test system: HCT-116
M14 = test system: M14
CAKI-1 = test system: CAKI-1
IGROV-1 = test system: IGROV-1
K562 = test system: K562
ACHN = test system: ACHN
OVCAR-8 = test system: OVCAR-8
SN12C = test system: SN12C
SW-620 = test system: SW-620
HL-60 = test system: HL-60
NCI-H226 = test system: NCI-H226
HCC 2998 = test system: HCC 2998
SK-OV-3 = test system: SK-OV-3
OVCAR-5 = test system: OVCAR-5
SF-268 = test system: SF-268
NCI-H522 = test system: NCI-H522
786-0 = test system: 786-0
RPMI-8226 = test system: RPMI-8226
COLO 205 = test system: COLO 205
A549 = test system: A549
DU-145 = test system: DU-145
CCRF-CEM = test system: CCRF-CEM
BT-549 = test system: BT-549
TK-10 = test system: TK-10
MCF7 = test system: MCF7
HOP-62 = test system: HOP-62
EKVX = test system: EKVX
SK-MEL-5 = test system: SK-MEL-5
HOP-92 = test system: HOP-92
NCI/ADR-RES = test system: NCI/ADR-RES
Malme-3M = test system: Malme-3M
PC-3 = test system: PC-3
SK-MEL-2 = test system: SK-MEL-2
RXF 393 = test system: RXF 393
MDA-MB-435 = test system: MDA-MB-435
U-251 = test system: U-251
KM12 = test system: KM12
OVCAR-4 = test system: OVCAR-4
SF-539 = test system: SF-539
SNB-75 = test system: SNB-75
SK-MEL-28 = test system: SK-MEL-28
A498 = test system: A498

O=c1[nH]c2nc3ccccc3c(=O)n2/c1=C/c1cccs1
GI50 (HCT-15): > 100 µM
GI50 (Hs-578T): 67 µM (inactive)
GI50 (UO-31): > 100 µM (inactive)
GI50 (T47D): 69.7 µM (inactive)
GI50 (SF-295): > 100 µM (inactive)
GI50 (SNB-19): > 100 µM (inactive)
GI50 (HT-29): > 100 µM (inactive)
GI50 (MDA-N): > 100 µM (inactive)
GI50 (LOX IMVI): > 100 µM (inactive)
GI50 (NCI-H23): > 100 µM (inactive)
GI50 (UACC-62): > 100 µM (inactive)
GI50 (SR): > 100 µM (inactive)
GI50 (MOLT-4): > 100 µM (inactive)
GI50 (OVCAR-3): > 100 µM (inactive)
GI50 (UACC-257): > 100 µM (inactive)
GI50 (MDA-MB-231): > 100 µM (inactive)
GI50 (HCT-116): > 100 µM (inactive)
GI50 (M14): > 100 µM (inactive)
GI50 (CAKI-1): > 100 µM (inactive)
GI50 (IGROV-1): > 100 µM (inactive)
GI50 (K562): > 100 µM (inactive)
GI50 (ACHN): > 100 µM (inactive)
GI50 (OVCAR-8): > 100 µM (inactive)
GI50 (SN12C): > 100 µM (inactive)
GI50 (SW-620): > 100 µM (inactive)
GI50 (HL-60): > 100 µM (inactive)
GI50 (NCI-H226): > 100 µM (inactive)
GI50 (HCC 2998): > 100 µM (inactive)
GI50 (SK-OV-3): > 100 µM (inactive)
GI50 (OVCAR-5): > 100 µM (inactive)
GI50 (SF-268): > 100 µM (inactive)
GI50 (NCI-H522): > 100 µM (inactive)
GI50 (786-0): > 100 µM (inactive)
GI50 (RPMI-8226): > 100 µM (inactive)
GI50 (COLO 205): > 100 µM (inactive)
GI50 (A549): > 100 µM (inactive)
GI50 (DU-145): > 100 µM (inactive)
GI50 (CCRF-CEM): > 100 µM (inactive)
GI50 (BT-549): > 100 µM (inactive)
GI50 (TK-10): > 100 µM (inactive)
GI50 (MCF7): > 100 µM (inactive)
GI50 (HOP-62): > 100 µM (inactive)
GI50 (EKVX): > 100 µM (inactive)
GI50 (SK-MEL-5): > 100 µM (inactive)
GI50 (HOP-92): 87.7 µM (inactive)
GI50 (NCI/ADR-RES): > 100 µM (inactive)
GI50 (Malme-3M): > 100 µM (inactive)
GI50 (PC-3): > 100 µM (inactive)
GI50 (SK-MEL-2): > 100 µM (inactive)
GI50 (RXF 393): > 100 µM (inactive)
GI50 (MDA-MB-435): > 100 µM (inactive)
GI50 (U-251): > 100 µM (inactive)
GI50 (KM12): 70.3 µM (inactive)
GI50 (OVCAR-4): > 100 µM (inactive)
GI50 (SF-539): > 100 µM (inactive)
GI50 (SNB-75): 20.5 µM (inactive)
GI50 (SK-MEL-28): > 100 µM (inactive)

COC(=O)c1c(C#N)[nH]c(-c2ccsc2)c1C(=O)OC
GI50 (Hs-578T): > 100 µM (inactive)
GI50 (UO-31): 56.4 µM (inactive)
GI50 (T47D): 37.1 µM (inactive)
GI50 (SF-295): > 100 µM (inactive)
GI50 (HT-29): > 100 µM (inactive)
GI50 (MDA-N): > 100 µM (inactive)
GI50 (LOX IMVI): > 100 µM (inactive)
GI50 (NCI-H23): > 100 µM (inactive)
GI50 (UACC-62): 76 µM (inactive)
GI50 (SR): > 100 µM (inactive)
GI50 (MOLT-4): > 100 µM (inactive)
GI50 (OVCAR-3): > 100 µM (inactive)
GI50 (UACC-257): 40.6 µM (inactive)
GI50 (MDA-MB-231): > 100 µM (inactive)
GI50 (HCT-116): > 100 µM (inactive)
GI50 (M14): > 100 µM (inactive)
GI50 (CAKI-1): 33.4 µM (inactive)
GI50 (IGROV-1): > 100 µM (inactive)
GI50 (K562): 78 µM (inactive)
GI50 (ACHN): > 100 µM (inactive)
GI50 (OVCAR-8): > 100 µM (inactive)
GI50 (SN12C): > 100 µM (inactive)
GI50 (SW-620): > 100 µM (inactive)
GI50 (NCI-H226): > 100 µM (inactive)
GI50 (SK-OV-3): > 100 µM (inactive)
GI50 (OVCAR-5): > 100 µM (inactive)
GI50 (SF-268): > 100 µM (inactive)
GI50 (NCI-H522): > 100 µM (inactive)
GI50 (786-0): > 100 µM (inactive)
GI50 (RPMI-8226): 40.4 µM (inactive)
GI50 (COLO 205): > 100 µM (inactive)
GI50 (A549): > 100 µM (inactive)
GI50 (DU-145): > 100 µM (inactive)
GI50 (CCRF-CEM): > 100 µM (inactive)
GI50 (BT-549): > 100 µM (inactive)
GI50 (TK-10): > 100 µM (inactive)
GI50 (MCF7): > 100 µM (inactive)
GI50 (HOP-62): > 100 µM (inactive)
GI50 (EKVX): > 100 µM (inactive)
GI50 (SK-MEL-5): 39 µM (inactive)
GI50 (HOP-92): 51.6 µM (inactive)
GI50 (NCI/ADR-RES): > 100 µM (inactive)
GI50 (Malme-3M): > 100 µM (inactive)
GI50 (PC-3): 70.6 µM (inactive)
GI50 (SK-MEL-2): > 100 µM (inactive)
GI50 (RXF 393): > 100 µM (inactive)
GI50 (MDA-MB-435): > 100 µM (inactive)
GI50 (U-251): > 100 µM (inactive)
GI50 (KM12): > 100 µM (inactive)
GI50 (A498): > 100 µM (inactive)
GI50 (SNB-75): > 100 µM (inactive)
GI50 (SK-MEL-28): > 100 µM (inactive)
